{"source": "patent US7211428B1", "about": "“Strain of Bacillus as a bioinoculant” (Council of Scientific and Industrial Research, priority 2004, dated 2007)", "tested_on": "geranium cuttings", "assay": "Root initiation and survival of geranium cuttings after treatment", "assay_type": "in vivo, Pelargonium graveolens", "parameters": "% survivality, Normal / % survivality, Two node / % survivality, Apical: concentration or dose not given beside the values", "conditions": "for % survivality, Apical: apical cuttings; for % survivality, Normal: normal cuttings; for % survivality, Two node: two node cuttings", "description": "Geranium cuttings treated with Bacillus strain MTCC-5130, initiated rooting after 22–25 days of treatment, which was 5–7 days earlier than untreated control cuttings."}
{"substance": "Indole butyric acid [IBA]", "values": [{"measurement": "Root initiation (days after)", "setting": "cuttings of Dec. 5, 2001", "result": 28, "unit": "days"}, {"measurement": "% survivality, Apical", "setting": "cuttings of Dec. 5, 2001", "result": 100.0, "unit": "%"}, {"measurement": "% survivality, Normal", "setting": "cuttings of Dec. 5, 2001", "result": 100, "unit": "%"}, {"measurement": "% survivality, Two node", "setting": "cuttings of Dec. 5, 2001", "result": 100, "unit": "%"}, {"measurement": "Root initiation (days after)", "setting": "cuttings of Nov. 20, 2001", "result": 27, "unit": "days"}, {"measurement": "% survivality, Apical", "setting": "cuttings of Nov. 20, 2001", "result": 95.8, "unit": "%"}, {"measurement": "% survivality, Normal", "setting": "cuttings of Nov. 20, 2001", "result": 100, "unit": "%"}, {"measurement": "% survivality, Two node", "setting": "cuttings of Nov. 20, 2001", "result": 69.2, "unit": "%"}]}
